From patent publication US9040557B2, “Composition containing cinchonine as an active ingredient for preventing and treating obesity, dyslipidemia, fatty liver, or insulin resistance syndrome” (YONSEI UNIVERSITY TECHNOLOGY HOLDINGS, INC., priority 2010, dated 2015)
Marks after values point to notes of the source that are not given here.

Experiments:
[1] = system: 3T3-L1 adipocyte precursor cells; test: Inhibition of adipocyte differentiation, Oil-red O staining; format: cell-based, mouse; conditions: 0.1, 1, 10, 50 and 100 μM, fourteen-day culture; for differentiation of 3T3-L1 adipocyte precursor cells: FIG. 1a; for content of intracellular fats stained with Oil-red O (O.D. at 600 nm): FIG. 1b
C57BL/6J mice [2] = test: Body and visceral fat-pad weights after 10 weeks of test diet; format: in vivo; conditions: 0.05% cinchonine in high-fat diet
Description: (§1) The obesity-inducing control diet used in the test was high-fat diet (HFD: 40% fat calorie, 17 g lard+3% corn oil/100 g diet). […] The normal diet (ND) was prepared according to the AIN-76 rodent diet composition (American Institute of Nutrition, Report of the American Institute of Nutrition ad hoc committee on standards for nutritional studies. J. Nutr., 107: 1340-1348, (1977)) (FIG. 1). (+)-Cinchonine was purchased from Sigma-Aldrich. 5-week-old male C57BL/6J mice (Orient, Korea) were accustomed to the laboratory environment for 1 week while feeding solid feed. Then, they were randomly divided into a high-fat diet group and a test group according to randomized block design and bred for a total of 10 weeks. The diet was given between 10 and 11 A.M. every day together with water. Food intake was measured every day and body weight was measured once a week. In order to avoid transient body weight increase after feed intake, body weight was measured 2 hr after removing the feed. […] Blood taken from the abdominal aorta was centrifuged at 1000×g for 15 minutes for the separation of plasma.

C57BL/6J mice [3] = test: Biochemical analysis of plasma after 10 weeks of test diet; format: in vivo
Description: as §1, with “plasma. […] Total cholesterol, triglyceride, free fatty acid and glucose levels in the plasma were measured twice for each using a commercially available kit (Bio Clinical System). The level of LDL+VLDL in plasma was calculated by subtracting HDL level from the total cholesterol level. The activities of ALT (alanine aminotransferase) and AST (aspartate aminotransferase) used as liver function indicator were measured using a commercially available kit (Bio Clinical System, Korea).” for “plasma.”

C57BL/6J mice [4] = test: Liver weight and lipid levels in liver tissue after 10 weeks of test diet; format: in vivo
Description: as §1, with “plasma. Lipids were extracted from the liver tissue according to Folch et al.'s method Folch J et al., J Biol Chem, 226: 497-509 (1957)). […] After adding 5 mL of chloroform:methanol solution (2:1, v/v) to the homogenate and mixing well, the mixture was centrifuged at 1000×g for 10 minutes. […] After adding 3 mL of chloroform:methanol:0.05% CaCl2 (3:48:47, v/v/v) solution to the remaining pellets and mixing well for 1 minute, followed by centrifugation at 1000×g for 10 minutes, the resulting pellets were completely dried with nitrogen gas. The dried lipids were dissolved in 1 mL of methanol and then analyzed. The commercially available kits (Bio Clinical System, Korea) were used to measure the levels of triglyceride, cholesterol and free fatty acids of the liver tissue.” for “plasma.”

PPARγ2 = test: RT-PCR of epididymal fat tissues: PPARγ2; format: in vivo, mice; conditions: CSID vs HFD, FIG. 4
Description: (§2) After adding 1 mL of Trizol agent (Invitrogen, USA) per 0.1 g of epididymal fat tissues, the mixture was homogenized and centrifuged at 12,000×g for 10 min at 4° C. The supernatant was transferred to a new tube and 200 μl of chloroform was added to the tube, followed by vortexing. The same procedure was repeated twice and then the supernatant was transferred to a new tube, followed by addition of isopropanol and the supernatant at 1:1 ratio. The mixture was vigorously shaken 10 times and then incubated for 10 min at room temperature, followed by centrifugation at 12,000×g for 10 min at 4° C. to remove the supernatant. After adding 1 mL of 70% ethanol to the remaining pellet, it was centrifuged at 7,500×g for 5 min at 4° C. After removing the ethanol, the RNA pellet contained in the tube was dried for 5 min at 4° C. and dissolved in nuclease-free water. The RNA concentration of sample was measured at a wavelength of 260 nm and 280 nm using a UV/VIS spectrophotometer (Beckman coulter, DU730) and the integrity of RNA sample was verified by agarose gel electrophoresis. The RNA sample obtained from the epididymal fat tissues was transcribed using oligo dT primer and SuperScript reverse transcriptase (GIBCO BRL, Gaithersburg, Md., USA) to synthesize cDNA. The PCR amplification was performed using the cDNA as templates and primers complementary to cDNA [NT] flanking sequence. […]

C/EBPα = test: RT-PCR of epididymal fat tissues: C/EBPα; format: in vivo, mice; conditions: CSID vs HFD, FIG. 4
aP2 = test: RT-PCR of epididymal fat tissues: aP2; format: in vivo, mice; conditions: CSID vs HFD, FIG. 4
Description: as §2

TNF-α = test: RT-PCR of visceral fat tissues: TNF-α; format: in vivo, mice; conditions: FIG. 5
Description: as §2

IL-6 = test: RT-PCR of visceral fat tissues: IL-6; format: in vivo, mice; conditions: FIG. 5
Description: as §2

UCP1 = test: RT-PCR of visceral fat tissues: UCP1; format: in vivo, mice; conditions: FIG. 6
Description: as §2

UCP3 = test: RT-PCR of visceral fat tissues: UCP3; format: in vivo, mice; conditions: FIG. 6
Description: as §2

[5] = system: P388 multidrug-resistant cells; conditions: cited from earlier work
Plasmodium falciparum = conditions: cited from earlier work
human platelets = conditions: cited from earlier work
[6] = system: adrenorceptor and Ca^2+ channels; conditions: cited from earlier work
P-glycoprotein = P-glycoprotein (Homo sapiens, UniProt P08183); conditions: cited from earlier work
[7] = 0.05% cinchonine in high-fat diet, 10 weeks
[8] = 0.05% cinchonine in high-fat diet

Chain of P-glycoprotein (P08183 whole entry): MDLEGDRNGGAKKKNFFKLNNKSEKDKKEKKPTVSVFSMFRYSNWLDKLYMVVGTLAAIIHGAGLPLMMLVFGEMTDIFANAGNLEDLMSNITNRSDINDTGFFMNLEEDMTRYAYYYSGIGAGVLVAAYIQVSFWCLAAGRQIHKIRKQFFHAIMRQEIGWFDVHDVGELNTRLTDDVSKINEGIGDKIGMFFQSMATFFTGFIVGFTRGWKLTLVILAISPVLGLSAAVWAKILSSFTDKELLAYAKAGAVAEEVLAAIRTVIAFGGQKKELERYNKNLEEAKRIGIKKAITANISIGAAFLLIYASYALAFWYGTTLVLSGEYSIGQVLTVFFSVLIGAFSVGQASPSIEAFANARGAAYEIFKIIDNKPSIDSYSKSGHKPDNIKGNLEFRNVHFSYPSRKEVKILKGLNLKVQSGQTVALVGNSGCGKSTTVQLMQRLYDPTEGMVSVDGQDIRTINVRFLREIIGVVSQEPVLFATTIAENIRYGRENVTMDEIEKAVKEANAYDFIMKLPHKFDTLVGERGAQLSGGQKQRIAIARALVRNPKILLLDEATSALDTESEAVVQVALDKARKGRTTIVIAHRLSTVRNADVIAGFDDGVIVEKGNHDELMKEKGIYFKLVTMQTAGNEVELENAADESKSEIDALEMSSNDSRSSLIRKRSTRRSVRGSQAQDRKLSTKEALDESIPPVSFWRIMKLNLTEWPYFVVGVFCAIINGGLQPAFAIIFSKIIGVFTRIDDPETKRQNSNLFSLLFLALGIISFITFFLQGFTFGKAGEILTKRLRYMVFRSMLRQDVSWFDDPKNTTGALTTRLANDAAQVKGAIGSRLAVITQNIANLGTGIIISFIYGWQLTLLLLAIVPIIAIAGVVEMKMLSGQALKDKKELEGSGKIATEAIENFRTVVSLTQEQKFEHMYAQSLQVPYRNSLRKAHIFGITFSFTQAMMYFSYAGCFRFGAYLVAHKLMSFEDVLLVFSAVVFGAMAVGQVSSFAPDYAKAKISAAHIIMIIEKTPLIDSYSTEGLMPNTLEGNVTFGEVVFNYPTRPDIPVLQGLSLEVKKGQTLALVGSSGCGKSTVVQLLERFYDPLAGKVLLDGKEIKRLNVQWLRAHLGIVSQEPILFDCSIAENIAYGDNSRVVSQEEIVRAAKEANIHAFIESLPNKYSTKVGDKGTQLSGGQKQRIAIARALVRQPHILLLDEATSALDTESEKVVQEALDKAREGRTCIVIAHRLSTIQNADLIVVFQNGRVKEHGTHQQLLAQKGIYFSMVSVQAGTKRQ

SMILES: C=C[C@H]1C[N@@]2CC[C@H]1C[C@@H]2[C@@H](O)c1ccnc2ccccc12 [cinchonine, Cinchonine]
- differentiation of 3T3-L1 adipocyte precursor cells [1]: significantly decreases differentiation
- differentiation of 3T3-L1 adipocyte precursor cells ([1]; listed as (+)-cinchonine): decreased differentiation
- content of intracellular fats stained with Oil-red O (O.D. at 600 nm) [1]: decreased in a dose-dependent manner
- content of intracellular fats stained with Oil-red O (O.D. at 600 nm) ([1]; listed as (+)-cinchonine): decreased
- decrease in cumulative body weight gain as compared to HFD (C57BL/6J mice [2]): 39%
- decrease in final body weight as compared to HFD (C57BL/6J mice [2]): 20%
- reduction of epididymal fat-pad weight as compared to HFD (C57BL/6J mice [2]): 19%
- reduction of mesenteric fat-pad weight as compared to HFD (C57BL/6J mice [2]): 43%
- reduction of perirenal fat-pad weight as compared to HFD (C57BL/6J mice [2]): 45%
- reduction of retroperitoneal fat-pad weight as compared to HFD (C57BL/6J mice [2]): 15%
- reduction of total visceral fat weight as compared to HFD (C57BL/6J mice [2]; p<0.001): 26%
- decrease of plasma ALT activity as compared to HFD (C57BL/6J mice [3]; [7]): 58%
- decrease of plasma AST activity as compared to HFD (C57BL/6J mice [3]; [7]): 46%
- lower plasma LDL+VLDL level as compared to HFD (C57BL/6J mice [3]; [7]): 33%
- lower plasma free fatty acid level as compared to HFD (C57BL/6J mice [3]; [7]): 21%
- lower plasma total cholesterol level as compared to HFD (C57BL/6J mice [3]; [7]): 30%
- lower plasma triglyceride level as compared to HFD (C57BL/6J mice [3]; [7]): 24%
- reduction of fasting blood sugar level as compared to HFD (C57BL/6J mice [3]; [7]): 27%
- lower plasma HDL cholesterol level as compared to HFD (C57BL/6J mice [3]; group fed with the present composition vs high fat diet group): 25%
- ALT (C57BL/6J mice [3]; plasma, CSID group, 10 weeks): 5.94 ± 0.78^c IU/L
- AST (C57BL/6J mice [3]; plasma, CSID group, 10 weeks): 6.03 ± 0.28^b IU/L
- Free fatty acid (C57BL/6J mice [3]; plasma, CSID group, 10 weeks): 685 ± 65.6^b uEq/L
- HDL cholesterol (C57BL/6J mice [3]; plasma, CSID group, 10 weeks): 0.89 ± 0.04^b mmol/L
- Total cholesterol (C57BL/6J mice [3]; plasma, CSID group, 10 weeks): 4.57 ± 0.26^b mmol/L
- Triglyceride (C57BL/6J mice [3]; plasma, CSID group, 10 weeks): 0.68 ± 0.05^b mmol/L
- LDL + VLDL cholesterol (C57BL/6J mice [3]; plasma, CSID group, 10 weeks, total cholesterol minus HDL): 3.68 ± 0.27^b mmol/L
- Glucose (C57BL/6J mice [3]; plasma, fasting, CSID group, 10 weeks): 6.51 ± 0.62^b mmol/L
- decrease of cholesterol level in liver tissue as compared to HFD (C57BL/6J mice [4]; [8]): 16%
- decrease of free fatty acid level in liver tissue as compared to HFD (C57BL/6J mice [4]; [8]): 23%
- decrease of triglyceride level in liver tissue as compared to HFD (C57BL/6J mice [4]; [8]): 16%
- reduction of absolute weight of liver as compared to HFD (C57BL/6J mice [4]; [8]): 36%
- reduction of ratio of liver weight to body weight as compared to HFD (C57BL/6J mice [4]; [8]): 25%
- Liver weight (C57BL/6J mice [4]; CSID group): 1.4 ± 0.14^b g
- Liver weight (g/100 g body wt) (C57BL/6J mice [4]; CSID group): 4.0 ± 0.12^b g/100 g body wt
- Cholesterol (C57BL/6J mice [4]; liver tissue, CSID group): 109.9 ± 2.37^b μmol/g
- Free fatty acid (C57BL/6J mice [4]; liver tissue, CSID group): 38.6 ± 3.52^b μEq/g
- Triglyceride (C57BL/6J mice [4]; liver tissue, CSID group): 59.7 ± 2.26^b μmol/g
- PPARγ2 gene expression (mRNA) (PPARγ2): significantly reduced expressions
- C/EBPα gene expression (mRNA) (C/EBPα): significantly reduced expressions
- aP2 gene expression (mRNA) (aP2): significantly reduced expressions
- HFD-induced elevation in expression of TNF-α (TNF-α): significantly reversed
- HFD-induced elevation in expression of IL-6 (IL-6): significantly reversed
- HFD-induced decrease in expression of UCP1 (UCP1): significantly reversed
- HFD-induced decrease in expression of UCP3 (UCP3): significantly reversed
- apoptosis by suppressing transportation of drugs from P388 multidrug-resistant cells [5]: induce apoptosis
- in vitro anti-malaria effects (Plasmodium falciparum): in vitro anti-malaria effects
- platelet aggregation, blocking Ca^2+ influx into human platelets (human platelets): inhibits platelet aggregation
- antihypertensive effects by blocking adrenorceptor and Ca^2+ channels [6]: antihypertensive effects
- multi-drug resistance of cancer cells through P-glycoprotein binding (P-glycoprotein): improve multi-drug resistance
